How the values were obtained:
[1] = target: cloned human P2Y1 receptors (Homo sapiens (Human), UniProt P47900); test: Binding Assay B: Scintillation Proximity Assay (SPA) for P2Y1 binding; conditions: SPA, [33P] 2MeS-ADP displacement; read-out: P2Y1 Ki (nM) using binding assay B
Description: A SPA membrane binding assay was used to identify inhibitors of [^33P] […] Binding reactions were performed in 384-well OptiPlates (PerkinElmer Life Sciences, Cat #6007299) in a volume of 50 μL containing ˜15 fmol of P2Y1 receptor (1.7 μg of total protein), 0.3 nM [^33P] […] Reactions were allowed to proceed to completion at room temperature for 1 hour followed by centrifugation of the plate for 5 min. About 40 μL of the aqueous solution was aspirated. Plates were sealed and the [^33P]

[2] = test system: human platelet rich plasma (PRP); test: ADP induced platelet aggregation assay; conditions: Homo sapiens, Platelet, read-out: PA IC50 (μM) @ 10 μM ADP, platelet aggregation induced by 10 μM ADP, human PRP

Sequence of cloned human P2Y1 receptors (P47900 whole entry): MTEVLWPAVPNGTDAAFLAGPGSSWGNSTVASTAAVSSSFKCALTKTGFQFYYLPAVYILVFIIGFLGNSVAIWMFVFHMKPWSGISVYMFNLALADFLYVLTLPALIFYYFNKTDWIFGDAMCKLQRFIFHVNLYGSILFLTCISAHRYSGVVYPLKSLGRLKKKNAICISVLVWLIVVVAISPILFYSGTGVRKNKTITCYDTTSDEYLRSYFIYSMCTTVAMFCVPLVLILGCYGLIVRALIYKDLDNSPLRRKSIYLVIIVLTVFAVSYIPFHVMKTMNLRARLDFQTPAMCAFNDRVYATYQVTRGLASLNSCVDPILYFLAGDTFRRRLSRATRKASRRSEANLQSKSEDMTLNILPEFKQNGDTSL

Compound	Ki [1] [nM]	IC50 [2] [µM]
CC(C)(C)CN1CCC2(CC1)CN(c1ccccc1NC(=O)Nc1nc3c(s1)CN(C(=O)C(F)(F)F)CC3)c1c(O)ccc(Cl)c12 [Example 72, 1-(2-(4-Chloro-7-hydroxy-1′-neopentylspiro[indoline-3,4′-piperidine]-1-yl)phenyl)-3-(5-(2,2,2-trifluoroacetyl)-4,5,6,7-tetrahydrothiazolo[5.4-c]pyridin-2-yl)urea]	22.4	0.2
CC(C)(C)CN1CCC2(CC1)CN(c1ccccc1NC(=O)Nc1nccs1)c1c(O)ccc(C(F)(F)F)c12 [Example 29, 1-(2-(7-Hydroxy-1′-neopentyl-4-(trifluoromethyl)spiro[indoline-3,4′-piperidine]-1-yl)phenyl)-3-(thiazol-2-yl)urea]	6.4	0.4
CC(C)(C)CN1CCC2(CC1)CN(c1ccccc1NC(=O)Nc1ccc(OC(F)(F)F)cc1)c1c(O)ccc(C(F)(F)F)c12 [Example 10, 1-(2-(7-Hydroxy-1′-neopentyl-4-(trifluoromethyl)spiro[indoline-3,4′-piperidine]-1-yl)phenyl)-3-(4-(trifluoromethoxy)phenyl)urea]	4.5	0.1
CC(C)(C)CN1CCC2(CC1)CN(c1ccccc1NC(=O)Nc1ccc(C(C)(C)C)cc1)c1c(O)ccc(Cl)c12 [Example 55, 1-(4-tert-Butylphenyl)-3-(2-(4-chloro-7-hydroxy-1′-neopentylspiro[indoline-3,4′-piperidine]-1-yl)phenyl)urea]	9.7	1
COC(=O)c1ccc(O)c2c1C1(CCN(CC(C)(C)C)CC1)CN2c1ccccc1NC(=O)Nc1ccc(OC(F)(F)F)cc1 [Example 79, Methyl 7-hydroxy-1′-neopentyl-1-(2-(3-(4-(trifluoromethoxy)phenyl)ureido)phenyl)-spiro[indoline-3,4′-piperidine]-4-carboxylate]	9	0.7
CC(C)(C)CN1CCC2(CC1)CN(c1ccccc1NC(=O)Nc1ccc(C(F)(F)F)nc1)c1c(O)ccc(C(F)(F)F)c12 [Example 23, 1-(2-(7-Hydroxy-1′-neopentyl-4-(trifluoromethyl)spiro[indoline-3,4′-piperidine]-1-yl)phenyl)-3-(6-(trifluoromethyl)pyridin-3-yl)urea]	8	1.1
CC(C)(C)CN1CCC2(CC1)CN(c1ccccc1NC(=O)Nc1nc3ccc(Cl)nc3s1)c1c(O)cc(F)c(Cl)c12 [Example 101, 1-(2-(4-Chloro-5-fluoro-7-hydroxy-1′-neopentylspiro [indoline-3,4′-piperidin]-1-yl)phenyl)-3-(5-chlorothiazolo[5,4-b]pyridin-2-yl)urea]	12.2	0.9
CC(C)(C)CN1CCC2(CC1)CN(c1ccccc1NC(=O)Nc1ccc(C3CCCN3CC(C)(C)C)cc1)c1c(O)ccc(Cl)c12 (centres unmarked) [Example 58, 1-(2-(4-Chloro-7-hydroxy-1′-neopentylspiro[indoline-3,4′-piperidine]-1-yl)phenyl)-3-(4-(1-neopentylpyrrolidin-2-yl)phenyl)urea]	12.4	0.2
CC(C)CN1CCCC1c1ccc(NC(=O)Nc2ccccc2N2CC3(CCN(CC(C)(C)C)CC3)c3c(Cl)ccc(O)c32)cc1 (centres unmarked) [Example 57, 1-(2-(4-Chloro-7-hydroxy-1′-neopentylspiro[indoline-3,4′-piperidine]-1-yl)phenyl)-3-(4-(1-isobutylpyrrolidin-2-yl)phenyl)urea]	10.4	0.2
CC(C)(C)CN1CCC2(CC1)CN(c1ccccc1NC(=O)Nc1ccc(OC(F)(F)F)cc1)c1c(O)ccc(Cl)c12 [Example 59, 1-(2-(4-Chloro-7-hydroxy-1′-neopentylspiro[indoline-3,4′-piperidine]-1-yl)phenyl)-3-(4-(trifluoromethoxy)phenyl)urea]	7.2	0.4
CC(C)(C)CN1CCC2(CC1)CN(c1ccccc1NC(=O)Nc1nc3ccc(Cl)nc3s1)c1c(O)ccc(-c3nc4cc(F)ccc4s3)c12 [Example 126, 1-(5-Chlorothiazolo[5,4-b]pyridin-2-yl)-3-(2-(4-(5-fluorobenzo[d]thiazol-2-yl)-7-hydroxy-1′-neopentylspiro[indoline-3,4′-piperidin]-1-yl)phenyl)urea]	13.1	0.4
COc1ccc2nc(-c3ccc(O)c4c3C3(CCN(CC(C)(C)C)CC3)CN4c3ccccc3NC(=O)Nc3ccc(OC(F)(F)F)cc3)sc2c1 [Example 130, 1-(2-(7-Hydroxy-4-(6-methoxybenzo[d]thiazol-2-yl)-1′-neopentylspiro[indoline-3,4′-piperidin]-1-yl)phenyl)-3-(4-(trifluoromethoxy)phenyl)urea]	16.8	0.6
CC(C)(C)CN1CCC2(CC1)CN(c1ccccc1NC(=O)Nc1nc3ccc(F)cc3s1)c1c(O)ccc(-c3nc4c(Cl)cccc4s3)c12 [Example 116, 1-(2-(4-(4-Chlorobenzo[d]thiazol-2-yl)-7-hydroxy-1′-neopentylspiro[indoline-3,4′-piperidin]-1-yl)phenyl)-3-(6-fluorobenzo[b]thiazol-2-yl)urea]	36.2	0.6
CC(C)(C)CN1CCC2(CC1)CN(c1ccccc1NC(=O)Nc1ccc(OC(F)(F)F)cc1)c1c(O)ccc(-c3nc4cc(F)ccc4s3)c12 [Example 135, 1-(2-(4-(5-Fluorobenzo[d]thiazol-2-yl)-7-hydroxy-1′-neopentylspiro[indoline-3,4′-piperidin]-1-yl)phenyl)-3-(4-(trifluoromethoxy)phenyl)urea]	21.7	0.6
CCSc1nsc(NC(=O)Nc2ccccc2N2CC3(CCN(CC(C)(C)C)CC3)c3c(C(F)(F)F)ccc(O)c32)n1 [Example 16, 1-(3-(Ethylthio)-1,2,4-thiadiazol-5-yl)-3-(2-(7-hydroxy-1′-neopentyl-4-(trifluoromethyl)spiro[indoline-3,4′-piperidine]-1-yl)phenyl)urea]	8.1	0.3
CC(C)(C)CN1CCC2(CC1)CN(c1ccccc1NC(=O)Nc1csc(C(F)(F)F)n1)c1c(O)cc(F)c(-c3ccc(C(F)(F)F)nc3)c12 [Example 159, 1-(2-(5-Fluoro-7-hydroxy-1′-neopentyl-4-(6-(trifluoromethyl)pyridin-3-yl)spiro[indoline-3,4′-piperidin]-1-yl)phenyl)-3-(2-(trifluoromethyl)thiazol-4-yl)urea]	281	0.1
COc1ccc2nc(-c3ccc(O)c4c3C3(CCN(CC(C)(C)C)CC3)CN4c3ccccc3NC(=O)Nc3csc(Cl)n3)sc2c1 [Example 128, 1-(2-Chlorothiazol-4-yl)-3-(2-(7-hydroxy-4-(6-methoxybenzo[d]thiazol-2-yl)-1′-neopentylspiro[indoline-3,4′-piperidin]-1-yl)phenyl)urea]	8	0.2
CC(C)(C)CN1CCC2(CC1)CN(c1ccccc1NC(=O)Nc1csc(C(F)(F)F)n1)c1c(O)ccc(Cl)c12 [Example 63, 1-(2-(4-Chloro-7-hydroxy-1′-neopentylspiro[indoline-3,4′-piperidine]-1-yl)phenyl)-3-(2-(trifluoromethyl)thiazol-4-yl)urea]	4.9	0.4
COC(=O)c1ccc2nc(NC(=O)Nc3ccccc3N3CC4(CCN(CC(C)(C)C)CC4)c4c(Cl)ccc(O)c43)sc2c1 [Example 41, Methyl 2-(3-(2-(4-Chloro-7-hydroxy-1′-neopentylspiro[indoline-3,4′-piperidine]-1-yl)phenyl)ureido)benzo [d]thiazole-6-carboxylate]	7.2	0.7
